Data on 21 compounds can be found in ChEMBL document CHEMBL1909046, “DrugMatrix in vitro pharmacology data”.

pIC50, pKi: −log10 of the molar value.

In assay [1] the target is T1, Caspase-1 (Homo sapiens, UniProt P29466).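 Note: Caspase-1 enzyme inhibition assay with a peptide substrate; in other assays of this panel Not Active means under 50% inhibition at 10 µM.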
T1 sequence (P29466 whole entry): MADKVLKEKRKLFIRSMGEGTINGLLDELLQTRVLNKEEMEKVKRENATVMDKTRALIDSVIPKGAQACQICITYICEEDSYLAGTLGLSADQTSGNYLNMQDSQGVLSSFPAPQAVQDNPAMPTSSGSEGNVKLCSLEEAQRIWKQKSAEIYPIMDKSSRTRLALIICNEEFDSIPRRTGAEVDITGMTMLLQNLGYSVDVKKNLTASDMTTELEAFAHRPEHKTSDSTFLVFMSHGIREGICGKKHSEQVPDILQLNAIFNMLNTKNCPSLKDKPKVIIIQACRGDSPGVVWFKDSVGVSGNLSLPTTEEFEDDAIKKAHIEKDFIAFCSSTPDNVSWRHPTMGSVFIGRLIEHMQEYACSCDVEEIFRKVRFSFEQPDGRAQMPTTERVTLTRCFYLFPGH
More on the design: species or system Escherichia coli.

Assay [2] concerns the target Melanocortin receptor 5 (Homo sapiens, UniProt P33032). Format: cell membranes, HEK293, Membrane. The settings on record: hek293. Note: in other assays of this panel Not Active means under 50% inhibition at 10 µM.
For assay [3], the target named is Beta-2 adrenergic receptor (Homo sapiens, UniProt P07550). The assay can be described thus: DRUGMATRIX: Adrenergic beta2 radioligand binding (ligand: [3H] CGP-12177). To be noted: cho; Not Active = under 50% inhibition at 10 µM. In kind it is cell membranes, CHO, Membrane.
Assay [4] is described as follows: DRUGMATRIX: Atrial Natriuretic Factor (ANF) radioligand binding (ligand: [125I] ANF (rat)). To be noted: Not Active = under 50% inhibition at 10 µM. Format: cell membranes, Cavia porcellus, Dunkin-Hartley, Adrenal gland, Membrane.
Assay [5] concerns the target Carbonic anhydrase 2 (Homo sapiens, UniProt P00918). The assay can be described thus: DRUGMATRIX: Carbonic Anhydrase II enzyme inhibition (substrate: 4-Nitrophenyl acetate (4-NPA)). Format: tissue-based, Erythrocyte. To be noted: Not Active = under 50% inhibition at 10 µM; for IC50 / Ki: erythrocyte.
In assay [6] the target is D(3) dopamine receptor (Homo sapiens, UniProt P35462). The assay can be described thus: DRUGMATRIX: Dopamine D3 radioligand binding (ligand: [3H] Spiperone). Format: cell membranes, CHO, Membrane. To be noted: for IC50 / Ki: cho.
D(3) dopamine receptor, sequence (P35462 whole entry): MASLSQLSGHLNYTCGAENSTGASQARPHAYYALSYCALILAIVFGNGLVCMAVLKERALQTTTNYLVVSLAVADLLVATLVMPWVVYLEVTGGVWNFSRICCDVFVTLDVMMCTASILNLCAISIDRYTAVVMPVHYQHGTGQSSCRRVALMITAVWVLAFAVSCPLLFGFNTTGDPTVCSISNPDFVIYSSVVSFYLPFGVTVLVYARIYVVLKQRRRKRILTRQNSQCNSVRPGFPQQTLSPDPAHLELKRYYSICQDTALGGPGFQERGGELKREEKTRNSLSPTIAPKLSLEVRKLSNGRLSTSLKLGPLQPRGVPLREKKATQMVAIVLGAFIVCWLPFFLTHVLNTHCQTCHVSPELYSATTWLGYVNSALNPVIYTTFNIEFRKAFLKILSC

Melanocortin receptor 5, sequence (P33032 whole entry): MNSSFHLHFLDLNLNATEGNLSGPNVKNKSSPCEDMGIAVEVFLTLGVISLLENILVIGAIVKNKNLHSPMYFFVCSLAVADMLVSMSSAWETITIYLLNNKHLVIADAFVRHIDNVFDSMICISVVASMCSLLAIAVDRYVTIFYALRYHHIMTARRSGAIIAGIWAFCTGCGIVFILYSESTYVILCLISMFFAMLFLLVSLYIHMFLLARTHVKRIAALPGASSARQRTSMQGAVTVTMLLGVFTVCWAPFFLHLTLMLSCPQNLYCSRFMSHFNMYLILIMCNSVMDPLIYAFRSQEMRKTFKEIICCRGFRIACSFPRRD

On to `CC(C)(C)NCC(O)COc1cccc2c1CC(O)C(O)C2` (stereo not drawn) [NADOLOL], for which the IC50 result in assay [1], in assay [2], in assay [3], in assay [4], in assay [5] and in assay [6] was “Not Active” in each case. Besides, the Ki result in assay [4] is listed as “Not Active”.
Consider `C[C@]12CC[C@H]3[C@@H](CCC4=CC(=O)CC[C@@H]43)[C@@H]1CC[C@@H]2O` [NANDROLONE], for which the IC50 entry in assay [1], in assay [2], in assay [3], in assay [4], in assay [5] and in assay [6] was “Not Active” in each case. For the same compound, in assay [4], the Ki entry was “Not Active”.
Consider `C[C@@H]1C/C=C/C=C/C=C/C=C/[C@H](O[C@@H]2O[C@H](C)[C@@H](O)[C@H](N)[C@@H]2O)C[C@@H]2O[C@](O)(C[C@@H](O)C[C@H]3O[C@@H]3/C=C/C(=O)O1)C[C@H](O)[C@H]2C(=O)O` [NATAMYCIN], for which the IC50 entry in assay [1], in assay [2], in assay [3], in assay [4], in assay [5] and in assay [6] was “Not Active” throughout. Further, the Ki entry in assay [4] was “Not Active”.
Turning to `CN(C)C(=O)Oc1cccc([N+](C)(C)C)c1.[Br-]` [NEOSTIGMINE BROMIDE], the IC50 result in assay [1], in assay [2], in assay [3], in assay [4], in assay [5] and in assay [6] was “Not Active” each time. Moreover, in assay [4], the Ki result was “Not Active”.
In the case of `NC(=O)c1cccnc1` [NIACINAMIDE], the IC50 result in assay [1], in assay [2], in assay [3], in assay [4], in assay [5] and in assay [6] was “Not Active” each time. Moreover, the Ki entry in assay [4] is “Not Active”.
With `CS(=O)(=O)Nc1ccc([N+](=O)[O-])cc1Oc1ccccc1` [NIMESULIDE], the IC50 entry in assay [1], in assay [2], in assay [3], in assay [4], in assay [5] and in assay [6] was “Not Active” in each case. Moreover, the Ki entry in assay [4] is “Not Active”.
With `CN1C(=O)CN=C(c2ccccc2)c2cc([N+](=O)[O-])ccc21` [NIMETAZEPAM], the IC50 result in assay [1], in assay [2], in assay [3], in assay [4], in assay [5] and in assay [6] was “Not Active” in each case. Besides, in assay [4], the Ki entry is on record as “Not Active”.
Consider `COc1ccc2c(c1OC)C(=O)O[C@@H]2[C@H]1c2c(cc3c(c2OC)OCO3)CCN1C` [NOSCAPINE], for which the IC50 entry in assay [1], in assay [2], in assay [3], in assay [4], in assay [5] and in assay [6] was “Not Active” each time. For the same compound, the Ki entry in assay [4] is “Not Active”.
As to `C[C@@H]1O[C@@H](O[C@H]2C[C@@H](O)[C@]3(CO)[C@H]4[C@H](O)C[C@]5(C)[C@@H](C6=CC(=O)OC6)CC[C@]5(O)[C@@H]4CC[C@]3(O)C2)[C@H](O)[C@H](O)[C@H]1O` [OUABAIN], the IC50 entry in assay [1], in assay [2], in assay [3], in assay [4], in assay [5] and in assay [6] was “Not Active” in each case. The Ki result in assay [4] was “Not Active”.
Regarding `NC(=O)N1c2ccccc2CC(=O)c2ccccc21` [OXCARBAZEPINE], the IC50 result in assay [1], in assay [2], in assay [3], in assay [4], in assay [5] and in assay [6] was “Not Active” in each case. The Ki entry in assay [4] was “Not Active”.
Regarding `COc1ccnc(C[S+]([O-])c2nc3ccc(OC(F)F)cc3[nH]2)c1OC` (stereo not drawn) [PANTOPRAZOLE], the IC50 result in assay [1], in assay [2], in assay [3], in assay [4], in assay [5] and in assay [6] was “Not Active” throughout. For the same compound, the Ki result in assay [4] is “Not Active”.
As for `NNCCc1ccccc1` [PHENELZINE], the IC50 result in assay [1], in assay [2], in assay [3], in assay [4], in assay [5] and in assay [6] was “Not Active” each time. Also, the Ki entry in assay [4] is recorded as “Not Active”.
As usually defined, the pIC50 is −log10 of the IC50, conventionally taken in molar units. On to `CCc1ccc(CCOc2ccc(CC3SC(=O)NC3=O)cc2)nc1` (stereo not drawn) [PIOGLITAZONE], for which the IC50 result in assay [1], in assay [2], in assay [3], in assay [4] and in assay [6] was “Not Active” throughout. The Ki result in assay [4] was “Not Active”. In addition, in assay [5] (read-out: IC50), the pIC50 was 6.94.
As to `CCCNC(C)C(=O)Nc1ccccc1C` (stereo not drawn) [PRILOCAINE], the IC50 result in assay [1], in assay [2], in assay [3], in assay [4], in assay [5] and in assay [6] was “Not Active” throughout. Also, in assay [4], the Ki result is on record as “Not Active”.
For `CCN(CC)CCNC(=O)c1ccc(N)cc1` [PROCAINAMIDE], the IC50 result in assay [1], in assay [2], in assay [3], in assay [4], in assay [5] and in assay [6] was “Not Active” throughout. For the same compound, the Ki result in assay [4] is given as “Not Active”.
Usually pKi stands for the negative decadic logarithm of the Ki, by convention in mol/L. Turning to `CCN(CC)CCCC(C)Nc1c2ccc(Cl)cc2nc2ccc(OC)cc12` (stereo not drawn) [QUINACRINE], the IC50 entry in assay [1], in assay [2], in assay [3], in assay [4] and in assay [5] was “Not Active” throughout. The Ki result in assay [4] is listed as “Not Active”. The pIC50 in assay [6] (read-out: IC50) is 5.88. In addition, the pKi in assay [6] (read-out: Ki) was 6.35.
Take `C[C@]12C=CC(=O)C=C1CC[C@H]1[C@@H]3C[C@@H](O)[C@](O)(C(=O)CO)[C@@]3(C)C[C@H](O)[C@@]12F` [TRIAMCINOLONE]: the IC50 result in assay [1], in assay [2], in assay [3], in assay [4], in assay [5] and in assay [6] was “Not Active” throughout. The Ki entry in assay [4] was “Not Active”.
Consider `CC[C@]1(O)C[C@@H]2CN(CCc3c([nH]c4ccccc34)[C@@](C(=O)OC)(c3cc4c(cc3OC)N(C)[C@H]3[C@@](O)(C(N)=O)[C@H](O)[C@]5(CC)C=CCN6CC[C@]43[C@@H]65)C2)C1` [VINDESINE], for which the IC50 result in assay [1], in assay [2], in assay [3], in assay [4], in assay [5] and in assay [6] was “Not Active” throughout. The Ki entry in assay [4] was “Not Active”.
Turning to `CCN(C(C)=O)c1cccc(-c2ccnc3c(C#N)cnn23)c1` [ZALEPLON], the IC50 entry in assay [1], in assay [2], in assay [3], in assay [4], in assay [5] and in assay [6] was “Not Active” each time. Besides, in assay [4], the Ki result is “Not Active”.
Take COBALTOUS CHLORIDE: the IC50 entry in assay [1], in assay [2], in assay [3], in assay [4], in assay [5] and in assay [6] was “Not Active” each time. Besides, the Ki entry in assay [1], in assay [2], in assay [3], in assay [4], in assay [5] and in assay [6] was “Not Active” in each case.
In the case of COLISTIN, the IC50 result in assay [1], in assay [3], in assay [4], in assay [5] and in assay [6] was “Not Active” throughout. The Ki entry in assay [1], in assay [3], in assay [4], in assay [5] and in assay [6] was “Not Active” each time. The pIC50 in assay [2] (read-out: IC50) is 6.58. The pKi in assay [2] (read-out: Ki) was 6.60.
